From US9927424B2, “Assays for identifying compounds that modulate bitter taste” (Chromocell Corporation, priority 2013, dated 2018)

Assays:
TAS2R9 = target: T1, TAS2R9 (Homo sapiens, UniProt Q9NYW1); test: Calcium fluorescence functional assay, TAS2R9 cell line with mouse Gα15; type: cell-based; details: for TAS2R9 bitter receptor activity (functional response): 20 mM tastant, change in intracellular calcium; for EC50: approximately, increasing concentrations of tastant
T1 construct: expressed in transfected cells
T1 sequence (Q9NYW1 1-312): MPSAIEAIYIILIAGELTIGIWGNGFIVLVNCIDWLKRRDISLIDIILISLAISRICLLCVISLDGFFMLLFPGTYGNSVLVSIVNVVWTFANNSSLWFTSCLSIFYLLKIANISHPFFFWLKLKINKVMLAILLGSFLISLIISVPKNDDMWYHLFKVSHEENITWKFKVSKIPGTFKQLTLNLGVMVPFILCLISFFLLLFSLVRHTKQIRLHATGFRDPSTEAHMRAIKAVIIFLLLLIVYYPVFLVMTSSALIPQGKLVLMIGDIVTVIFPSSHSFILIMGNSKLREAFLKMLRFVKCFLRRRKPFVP
Procedure: (§1) A panel of cell lines expressing eight specific bitter taste receptors, a subset of the panel of twenty-five bitter receptors described in International Patent Application Publication WO 2010/088633 (see, e.g., Example 26), was used for the purpose of these analyses. Accordingly, each cell line of the panel expressed a human bitter taste receptor and mouse Gα15 signaling protein.
(§2) Each of the Examples below utilized the following functional assay: • Day 1: Stable cell lines were seeded onto black wall/clear bottom 96-well, plates (e.g., Corning, 3904). Approximately 40K cells were added per well and incubated at 37° C., 5% CO2 overnight in cell growth media (DMEM (Sigma, D5796) supplemented with 10% Fetal Bovine Serum (Sigma, 5178), 2 mM Glutamine (Sigma, G7513)). • Day 2: Growth media was discarded and cells were incubated at 37° C., 5% CO2 for 60 minutes in 100 ul of load solution containing 1× Ca-3 dye (Molecular Devices, R8090), 1% DMSO in buffer containing 130 mM NaCl, 2 mM CaCl2, 5 mM KCl, 1.2 mM MgCl2, 10 mM HEPES and 10 mM Glucose (pH 7.0). Probenecid was not included in the load solution. • Functional assay: After dye loading, cell plates were placed in a fluorescent plate reader (e.g., FDSS6000 (Hamamatsu, Japan)) and receptor stimulation was measured by adding 50 ul of 3× concentrated ligand/agonist stock. Fluorescence was monitored continuously for 10 s before agonist addition and for 100-250 s after stimulation with agonist.
(§3) Receptor Activation is defined as follows: • % Activation=[((Maximum signal fluorescence−Minimum signal fluorescence)−(Maximum control fluorescence−Minimum control fluorescence))/(Maximum buffer fluorescence−Minimum buffer fluorescence)]*100 • Functional Response=[(Maximum signal fluorescence−Minimum signal fluorescence)−(Maximum control fluorescence−Minimum control fluorescence)] • Signal fluorescence: refers to the change in fluorescence seen with addition of ligand • Control fluorescence: refers to the change in fluorescence seen with addition of buffer (negative control) • Calcium signals from ligand and control were normalized to the basal fluorescence of the cells prior to the stimulation.
(§4) A concentration analysis was performed and EC50 values were calculated by nonlinear regression using the formula: Y=Bottom+(Top−Bottom)/(1+10^((Log EC50−X)*Hill Slope)), X=log of dose or concentration, Y=Response (increasing as X increases), Top=maximum signal, Bottom=minimum signal. EC50 (half maximal effective concentration) refers to the molar concentration of the agonist which produces 50% of the maximum possible effective response from that agonist.

TAS2R13 = target: T2, TAS2R13 (Homo sapiens, UniProt Q9NYV9); test: Calcium fluorescence functional assay, TAS2R13 cell line with mouse Gα15; type: cell-based; details: for TAS2R13 bitter receptor activity (functional response): 20 mM tastant, change in intracellular calcium; for EC50: approximately, increasing concentrations of tastant
T2 construct: expressed in transfected cells
T2 sequence (Q9NYV9 1-303): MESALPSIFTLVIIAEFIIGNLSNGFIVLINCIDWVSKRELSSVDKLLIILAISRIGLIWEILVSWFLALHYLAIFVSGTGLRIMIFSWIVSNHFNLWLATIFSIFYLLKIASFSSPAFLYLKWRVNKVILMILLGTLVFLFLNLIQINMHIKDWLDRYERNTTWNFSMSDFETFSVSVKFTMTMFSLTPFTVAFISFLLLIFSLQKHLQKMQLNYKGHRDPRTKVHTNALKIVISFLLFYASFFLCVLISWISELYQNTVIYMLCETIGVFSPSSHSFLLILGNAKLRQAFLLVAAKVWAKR
Procedure: as §1, §2, §3, §4

TAS2R39 = target: T3, TAS2R39 (Homo sapiens, UniProt P59534); test: Calcium fluorescence functional assay, TAS2R39 cell line with mouse Gα15; type: cell-based; details: for TAS2R39 bitter receptor activity (functional response): 20 mM tastant, change in intracellular calcium; for EC50: approximately, increasing concentrations of tastant
T3 construct: expressed in transfected cells
T3 sequence (P59534 1-338): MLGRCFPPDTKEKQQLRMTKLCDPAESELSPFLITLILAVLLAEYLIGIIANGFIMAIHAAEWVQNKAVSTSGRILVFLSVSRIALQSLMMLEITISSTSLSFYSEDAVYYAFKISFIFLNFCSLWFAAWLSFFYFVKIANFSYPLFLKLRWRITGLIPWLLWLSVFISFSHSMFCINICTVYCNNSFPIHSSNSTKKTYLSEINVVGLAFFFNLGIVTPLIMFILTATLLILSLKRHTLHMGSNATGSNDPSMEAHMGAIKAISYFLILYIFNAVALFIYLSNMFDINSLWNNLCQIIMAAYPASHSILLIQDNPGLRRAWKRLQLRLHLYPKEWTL
Procedure: as §1, §2, §3, §4

TAS2R14 = target: T4, TAS2R14 (Homo sapiens, UniProt Q9NYV8); test: Calcium fluorescence functional assay, TAS2R14 cell line with mouse Gα15; type: cell-based; details: for TAS2R14 bitter receptor activity (functional response): 20 mM tastant, change in intracellular calcium; for EC50: approximately, increasing concentrations of tastant
T4 construct: expressed in transfected cells
T4 sequence (Q9NYV8 1-317): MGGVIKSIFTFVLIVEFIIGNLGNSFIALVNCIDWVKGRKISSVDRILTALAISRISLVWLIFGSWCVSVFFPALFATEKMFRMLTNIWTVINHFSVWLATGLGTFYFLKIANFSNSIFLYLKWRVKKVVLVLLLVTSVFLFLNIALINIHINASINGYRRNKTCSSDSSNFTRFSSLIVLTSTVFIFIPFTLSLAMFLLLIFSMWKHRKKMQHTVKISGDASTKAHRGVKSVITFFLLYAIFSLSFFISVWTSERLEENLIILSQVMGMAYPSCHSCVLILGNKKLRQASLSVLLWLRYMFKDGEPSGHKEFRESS
Procedure: as §1, §2, §3, §4

TAS2R44 = target: T5, TAS2R44 (Homo sapiens, UniProt P59538); details: PCT/US12/61400; cited from earlier work
T5 construct: expressed in transfected cells
T5 sequence (P59538 1-309): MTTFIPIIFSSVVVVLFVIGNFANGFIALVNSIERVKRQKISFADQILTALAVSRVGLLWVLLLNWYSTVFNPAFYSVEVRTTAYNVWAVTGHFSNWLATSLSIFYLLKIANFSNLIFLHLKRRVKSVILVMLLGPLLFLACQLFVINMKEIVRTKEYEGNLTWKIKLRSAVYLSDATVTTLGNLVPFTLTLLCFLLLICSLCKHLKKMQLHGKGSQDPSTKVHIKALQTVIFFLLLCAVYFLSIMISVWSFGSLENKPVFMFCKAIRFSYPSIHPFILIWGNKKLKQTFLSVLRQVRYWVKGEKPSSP

SMILES	TAS2R9 bitter receptor activity (functional response) (TAS2R9)	EC50 (TAS2R9) [mM]	TAS2R13 bitter receptor activity (functional response) (TAS2R13)	EC50 (TAS2R13) [mM]	TAS2R39 bitter receptor activity (functional response) (TAS2R39)	EC50 (TAS2R39) [mM]	TAS2R14 bitter receptor activity (functional response) (TAS2R14)	EC50 (TAS2R14) [mM]	TAS2R44 response to stimulation, previously shown (TAS2R44)
O=C([O-])c1ccccc1.[K+] [potassium benzoate]	induced	5 to 10	induced	5 to 10	induced	5 to 10	induced	5 to 10	–
O=P([O-])([O-])O.[K+].[K+] [potassium phosphate (dibasic)]	induced	–	induced	–	induced	–	induced	–	–
C/C=C/C=C/C(=O)[O-].[K+] [potassium sorbate]	induced	–	induced	–	induced	–	induced	–	–
O=[N+]([O-])[O-].[K+] [potassium nitrate]	induced	–	induced	–	induced	–	induced	–	–
[Cl-].[K+] [KCl]	–	–	–	–	strongly and specifically responded	5 to 15	–	–	specifically respond
O=S(=O)([O-])[O-].[K+].[K+] [potassium sulfate]	induced	–	induced	–	induced	–	induced	–	–
CC(=O)[O-].[K+] [potassium acetate]	induced	5 to 10	induced	5 to 10	did not induce	–	induced	5 to 10	–
O=C([O-])[C@H](O)[C@@H](O)[C@H](O)[C@H](O)CO.[K+] [potassium gluconate]	induced	–	induced	–	induced	–	induced	–	–
